# Assay results: ChEMBL document CHEMBL3779792, “Anti-proliferative evaluation of monoterpene derivatives against leukemia” (Eur J Med Chem, 2016)
# Tested on: not listed separately
# Assay: Cytotoxicity against human NALM6 cells after 72 hrs by Cell-Titer Glo assay
# Type: functional, cell-based
# Conditions: NALM-6, 72 h
row,Structure (SMILES),EC50 [µM]
1,C=C[C@@](C)(/C=C/c1ccc(-c2ccc(Cl)c(Cl)c2)cc1)CCC=C(C)C,> 43.5
2,C=C[C@@](C)(/C=C/c1ccc(-c2ccccc2)cc1)CCC=C(C)C,> 43.5
3,C=C[C@@](C)(/C=C/c1ccc(Nc2ccc3c(c2)OCO3)cc1)CCC=C(C)C,> 43.5
4,C=C[C@@](C)(/C=C/c1ccc(Nc2ccc(OC)c(F)c2)cc1)CCC=C(C)C,> 43.5
5,C=C[C@@](C)(/C=C/c1ccc(Nc2ccc(OC)cc2)cc1)CCC=C(C)C,> 43.5
6,C=C[C@@](C)(/C=C/c1ccc(-c2ccc(F)cc2)cc1)CCC=C(C)C,> 43.5
7,C=C[C@@](C)(/C=C/c1ccc(Nc2cccc(OC(F)(F)F)c2)cc1)CCC=C(C)C,> 43.5
8,C=C[C@@](C)(/C=C/c1ccc(Nc2ccc(Cl)c(F)c2)cc1)CCC=C(C)C,> 43.5
9,C=C[C@@](C)(/C=C/c1ccc(-c2c(F)c(F)c(F)c(F)c2F)cc1)CCC=C(C)C,> 43.5
10,C=C[C@@](C)(/C=C/c1ccc(Nc2cc(F)c(F)cc2F)cc1)CCC=C(C)C,> 43.5
11,C=C[C@@](C)(/C=C/c1ccc(Nc2cc(F)c(F)c(F)c2)cc1)CCC=C(C)C,> 43.5
12,C=C[C@@](C)(/C=C/c1ccc(Nc2ccc(F)c(F)c2)cc1)CCC=C(C)C,> 43.5
13,CC(C)=CCC[C@@](C)(/C=C/c1ccccc1)/C=C/c1ccc(O)cc1,> 43.5
14,CC(C)=CCC[C@](C)(/C=C/c1ccc(O)cc1)/C=C/c1ccc(C#N)cc1,> 43.5
15,C=C[C@@](C)(/C=C/c1ccc(Nc2ccc(C(F)(F)F)cc2)cc1)CCC=C(C)C,> 43.5
16,C=C[C@@](C)(/C=C/c1ccc(Nc2c(F)cc(F)cc2F)cc1)CCC=C(C)C,> 43.5

# Tested on: not listed separately
# Assay: Cytotoxicity against human SEM cells after 72 hrs by Cell-Titer Glo assay
# Type: functional, cell-based
# Conditions: not given
row,Structure (SMILES),EC50 [µM]
1,C=C[C@@](C)(/C=C/c1ccc(-c2ccc(Cl)c(Cl)c2)cc1)CCC=C(C)C,> 36.6
2,C=C[C@@](C)(/C=C/c1ccc(-c2ccccc2)cc1)CCC=C(C)C,> 36.6
3,C=C[C@@](C)(/C=C/c1ccc(Nc2ccc3c(c2)OCO3)cc1)CCC=C(C)C,> 36.6
4,C=C[C@@](C)(/C=C/c1ccc(Nc2ccc(OC)c(F)c2)cc1)CCC=C(C)C,> 36.6
5,C=C[C@@](C)(/C=C/c1ccc(Nc2ccc(OC)cc2)cc1)CCC=C(C)C,> 36.6
6,C=C[C@@](C)(/C=C/c1ccc(-c2ccc(F)cc2)cc1)CCC=C(C)C,> 36.6
7,C=C[C@@](C)(/C=C/c1ccc(Nc2cccc(OC(F)(F)F)c2)cc1)CCC=C(C)C,> 36.6
8,C=C[C@@](C)(/C=C/c1ccc(Nc2ccc(Cl)c(F)c2)cc1)CCC=C(C)C,> 36.6
9,C=C[C@@](C)(/C=C/c1ccc(-c2c(F)c(F)c(F)c(F)c2F)cc1)CCC=C(C)C,> 36.6
10,C=C[C@@](C)(/C=C/c1ccc(Nc2cc(F)c(F)cc2F)cc1)CCC=C(C)C,> 36.6
11,C=C[C@@](C)(/C=C/c1ccc(Nc2cc(F)c(F)c(F)c2)cc1)CCC=C(C)C,> 36.6
12,C=C[C@@](C)(/C=C/c1ccc(Nc2ccc(F)c(F)c2)cc1)CCC=C(C)C,> 36.6
13,CC(C)=CCC[C@@](C)(/C=C/c1ccccc1)/C=C/c1ccc(O)cc1,> 36.6
14,CC(C)=CCC[C@](C)(/C=C/c1ccc(O)cc1)/C=C/c1ccc(C#N)cc1,> 36.6
15,C=C[C@@](C)(/C=C/c1ccc(Nc2ccc(C(F)(F)F)cc2)cc1)CCC=C(C)C,> 36.6
16,C=C[C@@](C)(/C=C/c1ccc(Nc2c(F)cc(F)cc2F)cc1)CCC=C(C)C,> 36.6

# Tested on: HepG2
# Assay: Cytotoxicity against human HepG2 cells after 72 hrs by Cell-Titer Glo assay
# Type: functional, cell-based
# Conditions: HepG2, 72 h
row,Structure (SMILES),EC50 [µM]
1,C=C[C@@](C)(/C=C/c1ccc(-c2ccc(Cl)c(Cl)c2)cc1)CCC=C(C)C,> 52.1
2,C=C[C@@](C)(/C=C/c1ccc(-c2ccccc2)cc1)CCC=C(C)C,> 52.1
3,C=C[C@@](C)(/C=C/c1ccc(Nc2ccc3c(c2)OCO3)cc1)CCC=C(C)C,> 52.1
4,C=C[C@@](C)(/C=C/c1ccc(Nc2ccc(OC)c(F)c2)cc1)CCC=C(C)C,> 52.1
5,C=C[C@@](C)(/C=C/c1ccc(Nc2ccc(OC)cc2)cc1)CCC=C(C)C,> 52.1
6,C=C[C@@](C)(/C=C/c1ccc(-c2ccc(F)cc2)cc1)CCC=C(C)C,> 52.1
7,C=C[C@@](C)(/C=C/c1ccc(Nc2cccc(OC(F)(F)F)c2)cc1)CCC=C(C)C,> 52.1
8,C=C[C@@](C)(/C=C/c1ccc(Nc2ccc(Cl)c(F)c2)cc1)CCC=C(C)C,> 52.1
9,C=C[C@@](C)(/C=C/c1ccc(-c2c(F)c(F)c(F)c(F)c2F)cc1)CCC=C(C)C,> 52.1
10,C=C[C@@](C)(/C=C/c1ccc(Nc2cc(F)c(F)cc2F)cc1)CCC=C(C)C,> 52.1
11,C=C[C@@](C)(/C=C/c1ccc(Nc2cc(F)c(F)c(F)c2)cc1)CCC=C(C)C,> 52.1
12,C=C[C@@](C)(/C=C/c1ccc(Nc2ccc(F)c(F)c2)cc1)CCC=C(C)C,> 52.1
13,CC(C)=CCC[C@@](C)(/C=C/c1ccccc1)/C=C/c1ccc(O)cc1,> 52.1
14,CC(C)=CCC[C@](C)(/C=C/c1ccc(O)cc1)/C=C/c1ccc(C#N)cc1,> 52.1
15,C=C[C@@](C)(/C=C/c1ccc(Nc2ccc(C(F)(F)F)cc2)cc1)CCC=C(C)C,> 52.1
16,C=C[C@@](C)(/C=C/c1ccc(Nc2c(F)cc(F)cc2F)cc1)CCC=C(C)C,> 52.1

# Tested on: Raji
# Assay: Cytotoxicity against human Raji cells after 72 hrs by Cell-Titer Glo assay
# Type: functional, cell-based
# Conditions: not given
row,Structure (SMILES),EC50 [µM]
1,C=C[C@@](C)(/C=C/c1ccc(-c2ccc(Cl)c(Cl)c2)cc1)CCC=C(C)C,> 26
2,C=C[C@@](C)(/C=C/c1ccc(-c2ccccc2)cc1)CCC=C(C)C,> 26
3,C=C[C@@](C)(/C=C/c1ccc(Nc2ccc3c(c2)OCO3)cc1)CCC=C(C)C,> 26
4,C=C[C@@](C)(/C=C/c1ccc(Nc2ccc(OC)c(F)c2)cc1)CCC=C(C)C,> 26
5,C=C[C@@](C)(/C=C/c1ccc(Nc2ccc(OC)cc2)cc1)CCC=C(C)C,> 26
6,C=C[C@@](C)(/C=C/c1ccc(-c2ccc(F)cc2)cc1)CCC=C(C)C,> 26
7,C=C[C@@](C)(/C=C/c1ccc(Nc2cccc(OC(F)(F)F)c2)cc1)CCC=C(C)C,> 26
8,C=C[C@@](C)(/C=C/c1ccc(Nc2ccc(Cl)c(F)c2)cc1)CCC=C(C)C,> 26
9,C=C[C@@](C)(/C=C/c1ccc(-c2c(F)c(F)c(F)c(F)c2F)cc1)CCC=C(C)C,> 26
10,C=C[C@@](C)(/C=C/c1ccc(Nc2cc(F)c(F)cc2F)cc1)CCC=C(C)C,> 26
11,C=C[C@@](C)(/C=C/c1ccc(Nc2cc(F)c(F)c(F)c2)cc1)CCC=C(C)C,> 26
12,C=C[C@@](C)(/C=C/c1ccc(Nc2ccc(F)c(F)c2)cc1)CCC=C(C)C,> 26
13,CC(C)=CCC[C@@](C)(/C=C/c1ccccc1)/C=C/c1ccc(O)cc1,> 26
14,CC(C)=CCC[C@](C)(/C=C/c1ccc(O)cc1)/C=C/c1ccc(C#N)cc1,> 26
15,C=C[C@@](C)(/C=C/c1ccc(Nc2ccc(C(F)(F)F)cc2)cc1)CCC=C(C)C,> 26
16,C=C[C@@](C)(/C=C/c1ccc(Nc2c(F)cc(F)cc2F)cc1)CCC=C(C)C,> 26

# Tested on: BJ
# Assay: Cytotoxicity against human BJ cells after 72 hrs by Cell-Titer Glo assay
# Type: cell-based
# Conditions: not given
row,Structure (SMILES),EC50 [µM]
1,C=C[C@@](C)(/C=C/c1ccc(-c2ccc(Cl)c(Cl)c2)cc1)CCC=C(C)C,> 36.6
2,C=C[C@@](C)(/C=C/c1ccc(-c2ccccc2)cc1)CCC=C(C)C,> 36.6
3,C=C[C@@](C)(/C=C/c1ccc(Nc2ccc3c(c2)OCO3)cc1)CCC=C(C)C,> 36.6
4,C=C[C@@](C)(/C=C/c1ccc(Nc2ccc(OC)c(F)c2)cc1)CCC=C(C)C,> 36.6
5,C=C[C@@](C)(/C=C/c1ccc(Nc2ccc(OC)cc2)cc1)CCC=C(C)C,> 36.6
6,C=C[C@@](C)(/C=C/c1ccc(-c2ccc(F)cc2)cc1)CCC=C(C)C,> 36.6
7,C=C[C@@](C)(/C=C/c1ccc(Nc2cccc(OC(F)(F)F)c2)cc1)CCC=C(C)C,> 36.6
8,C=C[C@@](C)(/C=C/c1ccc(Nc2ccc(Cl)c(F)c2)cc1)CCC=C(C)C,> 36.6
9,C=C[C@@](C)(/C=C/c1ccc(-c2c(F)c(F)c(F)c(F)c2F)cc1)CCC=C(C)C,> 36.6
10,C=C[C@@](C)(/C=C/c1ccc(Nc2cc(F)c(F)cc2F)cc1)CCC=C(C)C,> 36.6
11,C=C[C@@](C)(/C=C/c1ccc(Nc2cc(F)c(F)c(F)c2)cc1)CCC=C(C)C,> 36.6
12,C=C[C@@](C)(/C=C/c1ccc(Nc2ccc(F)c(F)c2)cc1)CCC=C(C)C,> 36.6
13,CC(C)=CCC[C@@](C)(/C=C/c1ccccc1)/C=C/c1ccc(O)cc1,> 36.6
14,CC(C)=CCC[C@](C)(/C=C/c1ccc(O)cc1)/C=C/c1ccc(C#N)cc1,> 36.6
15,C=C[C@@](C)(/C=C/c1ccc(Nc2ccc(C(F)(F)F)cc2)cc1)CCC=C(C)C,> 36.6
16,C=C[C@@](C)(/C=C/c1ccc(Nc2c(F)cc(F)cc2F)cc1)CCC=C(C)C,> 36.6

# Tested on: HEK293
# Assay: Cytotoxicity against HEK293 cells after 72 hrs by Cell-Titer Glo assay
# Type: cell-based
# Conditions: Homo sapiens, HEK293, 72 h
row,Structure (SMILES),EC50 [µM]
1,C=C[C@@](C)(/C=C/c1ccc(-c2ccc(Cl)c(Cl)c2)cc1)CCC=C(C)C,> 36.6
2,C=C[C@@](C)(/C=C/c1ccc(-c2ccccc2)cc1)CCC=C(C)C,> 36.6
3,C=C[C@@](C)(/C=C/c1ccc(Nc2ccc3c(c2)OCO3)cc1)CCC=C(C)C,> 36.6
4,C=C[C@@](C)(/C=C/c1ccc(Nc2ccc(OC)c(F)c2)cc1)CCC=C(C)C,> 36.6
5,C=C[C@@](C)(/C=C/c1ccc(Nc2ccc(OC)cc2)cc1)CCC=C(C)C,> 36.6
6,C=C[C@@](C)(/C=C/c1ccc(-c2ccc(F)cc2)cc1)CCC=C(C)C,> 36.6
7,C=C[C@@](C)(/C=C/c1ccc(Nc2cccc(OC(F)(F)F)c2)cc1)CCC=C(C)C,> 36.6
8,C=C[C@@](C)(/C=C/c1ccc(Nc2ccc(Cl)c(F)c2)cc1)CCC=C(C)C,> 36.6
9,C=C[C@@](C)(/C=C/c1ccc(-c2c(F)c(F)c(F)c(F)c2F)cc1)CCC=C(C)C,> 36.6
10,C=C[C@@](C)(/C=C/c1ccc(Nc2cc(F)c(F)cc2F)cc1)CCC=C(C)C,> 36.6
11,C=C[C@@](C)(/C=C/c1ccc(Nc2cc(F)c(F)c(F)c2)cc1)CCC=C(C)C,> 36.6
12,C=C[C@@](C)(/C=C/c1ccc(Nc2ccc(F)c(F)c2)cc1)CCC=C(C)C,> 36.6
13,CC(C)=CCC[C@@](C)(/C=C/c1ccccc1)/C=C/c1ccc(O)cc1,> 36.6
14,CC(C)=CCC[C@](C)(/C=C/c1ccc(O)cc1)/C=C/c1ccc(C#N)cc1,> 36.6
15,C=C[C@@](C)(/C=C/c1ccc(Nc2ccc(C(F)(F)F)cc2)cc1)CCC=C(C)C,> 36.6
16,C=C[C@@](C)(/C=C/c1ccc(Nc2c(F)cc(F)cc2F)cc1)CCC=C(C)C,> 36.6
